test system: not listed separately; test: Antiinflammatory activity in human polymorphonuclear neutrophils assessed as reduction in LPS-stimulated TNFalpha release; type: functional, Polymorphonuclear neutrophil; design: scale not given: the % may be the effect or the level left; conditions: not given

Point of comparison: `O=C1C=CC2(C=C1)CCc1cc(O)cc(O[C@@H]3C[C@H](CO[C@@H]4OC[C@](O)(COC(=O)/C=C/c5ccc(O)c(O)c5)[C@@H]4O)[C@@H](O)[C@H](O)[C@H]3O)c12`, Activity 20%. Against it:
- O=c1c(O)c(-c2ccc(O)c(O)c2)oc2cc(O)cc(O)c12 [QUERCETIN] — higher, 28%
- O=C1C=CC2(C=C1)CCc1cc(O)cc(O[C@@H]3C[C@H](CO)[C@@H](O)[C@H](O)[C@H]3O)c12 — higher, 38%

test system: Influenza A virus; test: not given; conditions: mdck

With `COC1=CC(=O)c2ccc(=O)oc2C12C(C=C(C)C)CC1(C)CC(C)=CC(c3c(OC)cc(OC)c4ccc(=O)oc34)C1C2c1c(OC)cc(OC)c2ccc(=O)oc12` (racemic; form 2) the IC50 was 2870 nM.

test system: HL-60; test: Antiproliferative activity against human HL-60 cells; type: functional, cell-based; conditions: not given

Point of comparison: `COC1=C[C@@H]2[C@@H]3Cc4c(CN5CCc6cc(OC)c(OC)c7c6[C@@H]5CC75C=CC(=O)C=C5)cc(OC)c(O)c4[C@]2(CCN3C)CC1=O`, IC50 17.4 mM. Against it:
- COC1=C[C@@]23CCN(C)[C@@H](Cc4c(CN5CCc6cc(OC)c(O)cc6[C@H]5Cc5ccc(O)cc5)cc(OC)c(O)c42)C3=CC1=O — higher, > 40 mM

test system: SW480; test: Antiproliferative activity against human SW480 cells; type: functional, cell-based; conditions: not given

Point of comparison: `COC1=C[C@@H]2[C@@H]3Cc4c(CN5CCc6cc(OC)c(OC)c7c6[C@@H]5CC75C=CC(=O)C=C5)cc(OC)c(O)c4[C@]2(CCN3C)CC1=O`, IC50 18.3 mM. Against it:
- COC1=C[C@@]23CCN(C)[C@@H](Cc4c(CN5CCc6cc(OC)c(O)cc6[C@H]5Cc5ccc(O)cc5)cc(OC)c(O)c42)C3=CC1=O — higher, > 40 mM

test system: Jurkat; test: Cytotoxicity against human Jurkat cells; type: functional, cell-based; conditions: Homo sapiens, Jurkat

Point of comparison: `CCCCCCCCCCCCC/C(O)=C1\C(=O)N(Cc2ccccc2)CC12C=CC(=O)C=C2`, IC50 1420 nM. Against it:
- CCCCCCCCCCCCCC(=O)C1C(=O)N(Cc2ccccc2)C12C=CC(=O)C=C2 (stereo not given) — 2-fold higher, 2880 nM
- C#CCCCCCCCCCCCN1C(=O)C(C2(OCC)CCC3(C=CC(=O)C=C3)O2)C12C=CC(=O)C=C2 (stereo in doubt; 30) — 10-fold lower, 140 nM
- C#CCCCCCCC(=O)C1C(=O)N(Cc2ccccc2)C12C=CC(=O)C=C2 (stereo not given) — 5.2-fold higher, 7400 nM

same assay, conditions: jurkat

Point of comparison: `CCCCCCCCCCCCN1C(=O)C(C2(OC)CCC3(C=CC(=O)C=C3)O2)C12C=CC(=O)C=C2` (stereo in doubt; 28), IC50 350 nM. Against it:
- C#CCCCCCCCCCCCN1C(=O)C(C2(OCC)CCC3(C=CC(=O)C=C3)O2)C12C=CC(=O)C=C2 (stereo in doubt; 31) — 2.3-fold lower, 150 nM
- CCCCCCCCCCCCN1C(=O)C(C2(OC)CCC3(C=CC(=O)C=C3)O2)C12C=CC(=O)C=C2 (stereo in doubt; 29) — 5.8-fold lower, 60 nM

test system: KB; test: Antiproliferative activity against human KB cells; type: functional, cell-based; conditions: not given

Point of comparison: `COC(=O)[C@@]1(C2C=CC(=O)C=C2)c2cc(O)cc(O)c2[C@@H](c2ccc(O)cc2)C(=O)c2cc(O)cc(O)c21`, IC50 33.2 µM. Against it:
- O=C1C=CC(=C2C(=O)c3cc(O)cc4c3[C@@](c3ccc(O)cc3)(C(=O)O4)c3cc(O)cc(O)c32)C=C1 — higher, > 100 µM

test system: not listed separately; test: Antiinflammatory activity in human polymorphonuclear neutrophils assessed as reduction in LPS-stimulated IL-8 release; type: functional, Polymorphonuclear neutrophil; design: scale not given: the % may be the effect or the level left; conditions: not given

Point of comparison: `O=C1C=CC2(C=C1)CCc1cc(O)cc(O[C@@H]3C[C@H](CO)[C@@H](O)[C@H](O)[C@H]3O)c12`, Activity 70%. Against it:
- O=c1c(O)c(-c2ccc(O)c(O)c2)oc2cc(O)cc(O)c12 [QUERCETIN] — lower, 18%
- O=C1C=CC2(C=C1)CCc1cc(O)cc(O[C@@H]3C[C@H](CO[C@@H]4OC[C@](O)(COC(=O)/C=C/c5ccc(O)c(O)c5)[C@@H]4O)[C@@H](O)[C@H](O)[C@H]3O)c12 — lower, 28%

test system: MDA-MB-231; test: Antiproliferative activity against human MDA-MB-231 cells; type: functional, cell-based; conditions: not given

Point of comparison: `Cc1cc(C)c2c(c1)OCC(=O)N2c1nc(-c2ccc(Cl)cc2Cl)nn1-c1ccccc1`, IC50 2850 nM. Against it:
- O=C1C=CC2(C=C1)OCC(=O)N2c1nc(-c2cccs2)nn1-c1ccccc1 — 3600-fold lower, 0.8 nM

test system: NCI-H460; test: Antiproliferative activity against human NCI-H460 cells; type: functional, cell-based; conditions: not given

Point of comparison: `COC(=O)[C@@]1(C2C=CC(=O)C=C2)c2cc(O)cc(O)c2[C@@H](c2ccc(O)cc2)C(=O)c2cc(O)cc(O)c21`, IC50 32.7 µM. Against it:
- O=C1C=CC(=C2C(=O)c3cc(O)cc4c3[C@@](c3ccc(O)cc3)(C(=O)O4)c3cc(O)cc(O)c32)C=C1 — higher, > 100 µM

test system: Plasmodium falciparum; test: Antimalarial activity against Plasmodium falciparum 3D7; type: functional, organism-based; conditions: not given

Point of comparison: `C#CCCCCCCCCCCCN1C(=O)C(C2(OCC)CCC3(C=CC(=O)C=C3)O2)C12C=CC(=O)C=C2` (stereo in doubt; 31), IC50 1410 nM. Against it:
- CCCCCCCCCCCCN1C(=O)C(C2(OC)CCC3(C=CC(=O)C=C3)O2)C12C=CC(=O)C=C2 (stereo in doubt; 29) — 1.5-fold lower, 910 nM

same assay, conditions: Plasmodium falciparum, 3D7

Point of comparison: `CCCCCCCCCCCCN1C(=O)C(C2(OC)CCC3(C=CC(=O)C=C3)O2)C12C=CC(=O)C=C2` (stereo in doubt; 28), IC50 1680 nM. Against it:
- CCCCCCCCCCCCCC(=O)C1C(=O)N(Cc2ccccc2)C12C=CC(=O)C=C2 (stereo not given) — within 1.5-fold, 1350 nM
- C#CCCCCCCCCCCCN1C(=O)C(C2(OCC)CCC3(C=CC(=O)C=C3)O2)C12C=CC(=O)C=C2 (stereo in doubt; 30) — within 1.5-fold, 1720 nM
- CCCCCCCCCCCCC/C(O)=C1\C(=O)N(Cc2ccccc2)CC12C=CC(=O)C=C2 — within 1.5-fold, 2290 nM
- C#CCCCCCCC(=O)C1C(=O)N(Cc2ccccc2)C12C=CC(=O)C=C2 (stereo not given) — 4.6-fold higher, 7700 nM

target: Neutrophil elastase (Homo sapiens, UniProt P08246); test: Inhibition of human neutrophil elastase activity assessed as reduction in elastase release; conditions: not given
Sequence (P08246 whole entry): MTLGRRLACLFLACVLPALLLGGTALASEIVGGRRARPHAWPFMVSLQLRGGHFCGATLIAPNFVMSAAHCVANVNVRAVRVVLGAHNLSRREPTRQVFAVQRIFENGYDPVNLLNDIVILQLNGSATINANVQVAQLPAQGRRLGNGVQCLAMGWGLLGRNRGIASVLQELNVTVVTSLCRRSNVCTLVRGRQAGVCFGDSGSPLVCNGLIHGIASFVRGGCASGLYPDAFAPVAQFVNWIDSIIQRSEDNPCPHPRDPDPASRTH

Work on `COc1cc2c(c3c1CCC(c1ccccc1)O3)C1C3C(c4ccc(O)c(C)c4OC)C(C(O)(OC)c4ccccc4)C14C(C=CC(=O)C4OC)OC3(c1ccccc1)O2` (stereo not given) yielded an IC50 of 6.53 µM.

test system: A549; test: Antiproliferative activity against human A549 cells; type: functional, cell-based; conditions: not given

Point of comparison: `COC1=C[C@@H]2[C@@H]3Cc4c(CN5CCc6cc(OC)c(OC)c7c6[C@@H]5CC75C=CC(=O)C=C5)cc(OC)c(O)c4[C@]2(CCN3C)CC1=O`, IC50 18.5 mM. Against it:
- COC1=C[C@@]23CCN(C)[C@@H](Cc4c(CN5CCc6cc(OC)c(O)cc6[C@H]5Cc5ccc(O)cc5)cc(OC)c(O)c42)C3=CC1=O — higher, > 40 mM
- O=C1C=CC2(C=C1)OCC(=O)N2c1nc(-c2cccs2)nn1-c1ccccc1 — far lower, 2.52e-05 mM

test system: not listed separately; test: in vitro; conditions: dog, MDCK cells, TI
Description: Therapeutic index, ratio of TC50 for MDCK cells to IC50 for antiviral activity against influenza A virus (A/Hanfang/359/95(H3N2))

`CCOC(=O)C1=C[C@@H](OC(CC)CC)[C@H](NC(C)=O)[C@@H](N)C1` [OSELTAMIVIR] showed a selectivity ratio of 910.

test system: K562; test: Cytotoxicity against human K562 cells; type: functional, cell-based; conditions: Homo sapiens, K562

Point of comparison: `C#CCCCCCCCCCCCN1C(=O)C(C2(OCC)CCC3(C=CC(=O)C=C3)O2)C12C=CC(=O)C=C2` (stereo in doubt; 30), IC50 320 nM. Against it:
- CCCCCCCCCCCCCC(=O)C1C(=O)N(Cc2ccccc2)C12C=CC(=O)C=C2 (stereo not given) — 17-fold higher, 5470 nM
- CCCCCCCCCCCCC/C(O)=C1\C(=O)N(Cc2ccccc2)CC12C=CC(=O)C=C2 — 5.4-fold higher, 1730 nM
- C#CCCCCCCC(=O)C1C(=O)N(Cc2ccccc2)C12C=CC(=O)C=C2 (stereo not given) — 48-fold higher, 15300 nM

same assay, conditions: k562

Point of comparison: `CCCCCCCCCCCCN1C(=O)C(C2(OC)CCC3(C=CC(=O)C=C3)O2)C12C=CC(=O)C=C2` (stereo in doubt; 29), IC50 180 nM. Against it:
- C#CCCCCCCCCCCCN1C(=O)C(C2(OCC)CCC3(C=CC(=O)C=C3)O2)C12C=CC(=O)C=C2 (stereo in doubt; 31) — 2-fold higher, 360 nM
- CCCCCCCCCCCCN1C(=O)C(C2(OC)CCC3(C=CC(=O)C=C3)O2)C12C=CC(=O)C=C2 (stereo in doubt; 28) — 3.4-fold higher, 620 nM

test system: Influenza A virus; test: microbe, parasite or virus in culture; conditions: H3N2, MDCK
Description: Antiviral activity against influenza A virus (A/Hanfang/359/95(H3N2)) infected in MDCK cells

Molecule `CCOC(=O)C1=C[C@@H](OC(CC)CC)[C@H](NC(C)=O)[C@@H](N)C1` [OSELTAMIVIR] has an IC50 of 3.38 µM.

test system: not listed separately; test: (§1) Cytotoxicity against MDCK cells; type: toxicity, cell-based, Canis lupus familiaris; conditions: dog, MDCK cells; read-out: TC50 (the source's name)

`CCOC(=O)C1=C[C@@H](OC(CC)CC)[C@H](NC(C)=O)[C@@H](N)C1` [OSELTAMIVIR] showed a CC50 of 3.07 mM.

test system: MDCK; test: as §1; type: toxicity, cell-based, Canis lupus familiaris; conditions: dog, mdck; read-out: TC50 (the source's name)

For `COC1=CC(=O)c2ccc(=O)oc2C12C(C=C(C)C)CC1(C)CC(C)=CC(c3c(OC)cc(OC)c4ccc(=O)oc34)C1C2c1c(OC)cc(OC)c2ccc(=O)oc12` (racemic; form 2), the CC50 was 25.9 µM.

test system: HeLa; test: Antiproliferative activity against human HeLa cells; type: functional, cell-based; conditions: not given

Point of comparison: `O=C1C=CC2(C=C1)OCC(=O)N2c1nc(-c2cccs2)nn1-c1ccccc1`, IC50 0.0453 µM. Against it:
- Cc1cc(C)c2c(c1)OCC(=O)N2c1nc(-c2ccc(Cl)cc2Cl)nn1-c1ccccc1 — 560-fold higher, 25.2 µM
- O=C1C=CC(=C2C(=O)c3cc(O)cc4c3[C@@](c3ccc(O)cc3)(C(=O)O4)c3cc(O)cc(O)c32)C=C1 — higher, > 100 µM
- COC(=O)[C@@]1(C2C=CC(=O)C=C2)c2cc(O)cc(O)c2[C@@H](c2ccc(O)cc2)C(=O)c2cc(O)cc(O)c21 — 570-fold higher, 25.7 µM

test system: MCF7; test: Antiproliferative activity against human MCF7 cells; type: functional, cell-based; conditions: not given

Point of comparison: `O=C1C=CC2(C=C1)OCC(=O)N2c1nc(-c2cccs2)nn1-c1ccccc1`, IC50 0.00411 µM. Against it:
- O=C1C=CC(=C2C(=O)c3cc(O)cc4c3[C@@](c3ccc(O)cc3)(C(=O)O4)c3cc(O)cc(O)c32)C=C1 — 24000-fold higher, 99 µM
- COC(=O)[C@@]1(C2C=CC(=O)C=C2)c2cc(O)cc(O)c2[C@@H](c2ccc(O)cc2)C(=O)c2cc(O)cc(O)c21 — 6800-fold higher, 28 µM

test system: SMMC-7721; test: Antiproliferative activity against human SMMC-7721 cells; type: functional, cell-based; conditions: not given

Point of comparison: `COC1=C[C@@H]2[C@@H]3Cc4c(CN5CCc6cc(OC)c(OC)c7c6[C@@H]5CC75C=CC(=O)C=C5)cc(OC)c(O)c4[C@]2(CCN3C)CC1=O`, IC50 17.1 mM. Against it:
- COC1=C[C@@]23CCN(C)[C@@H](Cc4c(CN5CCc6cc(OC)c(O)cc6[C@H]5Cc5ccc(O)cc5)cc(OC)c(O)c42)C3=CC1=O — higher, > 40 mM

test system: not listed separately; test: Antiinflammatory activity in human polymorphonuclear neutrophils assessed as reduction in LPS-stimulated IL-1beta release; type: functional, Polymorphonuclear neutrophil; design: scale not given: the % may be the effect or the level left; conditions: not given

Point of comparison: `O=C1C=CC2(C=C1)CCc1cc(O)cc(O[C@@H]3C[C@H](CO[C@@H]4OC[C@](O)(COC(=O)/C=C/c5ccc(O)c(O)c5)[C@@H]4O)[C@@H](O)[C@H](O)[C@H]3O)c12`, Activity 90%. Against it:
- O=c1c(O)c(-c2ccc(O)c(O)c2)oc2cc(O)cc(O)c12 [QUERCETIN] — lower, 4%
- O=C1C=CC2(C=C1)CCc1cc(O)cc(O[C@@H]3C[C@H](CO)[C@@H](O)[C@H](O)[C@H]3O)c12 — higher, 105%

test system: SF-268; test: Antiproliferative activity against human SF-268 cells; type: functional, cell-based; conditions: not given

Point of comparison: `COC(=O)[C@@]1(C2C=CC(=O)C=C2)c2cc(O)cc(O)c2[C@@H](c2ccc(O)cc2)C(=O)c2cc(O)cc(O)c21`, IC50 29.2 µM. Against it:
- O=C1C=CC(=C2C(=O)c3cc(O)cc4c3[C@@](c3ccc(O)cc3)(C(=O)O4)c3cc(O)cc(O)c32)C=C1 — higher, > 100 µM
